# Biological target: P. falciparum apicoplast DNA polymerase (Pf-apPOL) (Plasmodium falciparum, UniProt Q8ILY1)
# Experiment: Fluorescence-based high-throughput DNA polymerase assay (molecular beacon), primary screen and dose-response;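 on % inhibition ApPOL 90': test concentration in µM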;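 on % inhibition apPOL 180': test concentration in µM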
# Assay type: biochemical
# In short: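 Single-point screening used 10 µM compound with 20 nM polymerase, 20 nM hairpin substrate and 6 µM dNTPs for 90 min at 25 °C. Confirmatory titrations (2.5–80 µM) followed fluorescence at three times, and IC50 was derived from a fit including a cooperativity term n.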
# [1] = 'DNA Pol'; screening value, unit not given; 90 min, 10 µM
# [2] = primary screen hit value, DNA Pol (186 hits); 90 min, 10 µM
# [3] = supplemental file 2, sheet IC50 nontoxic compounds; Pf-apPOL
# Chain of P. falciparum apicoplast DNA polymerase (Pf-apPOL) (Q8ILY1 entry or part of it): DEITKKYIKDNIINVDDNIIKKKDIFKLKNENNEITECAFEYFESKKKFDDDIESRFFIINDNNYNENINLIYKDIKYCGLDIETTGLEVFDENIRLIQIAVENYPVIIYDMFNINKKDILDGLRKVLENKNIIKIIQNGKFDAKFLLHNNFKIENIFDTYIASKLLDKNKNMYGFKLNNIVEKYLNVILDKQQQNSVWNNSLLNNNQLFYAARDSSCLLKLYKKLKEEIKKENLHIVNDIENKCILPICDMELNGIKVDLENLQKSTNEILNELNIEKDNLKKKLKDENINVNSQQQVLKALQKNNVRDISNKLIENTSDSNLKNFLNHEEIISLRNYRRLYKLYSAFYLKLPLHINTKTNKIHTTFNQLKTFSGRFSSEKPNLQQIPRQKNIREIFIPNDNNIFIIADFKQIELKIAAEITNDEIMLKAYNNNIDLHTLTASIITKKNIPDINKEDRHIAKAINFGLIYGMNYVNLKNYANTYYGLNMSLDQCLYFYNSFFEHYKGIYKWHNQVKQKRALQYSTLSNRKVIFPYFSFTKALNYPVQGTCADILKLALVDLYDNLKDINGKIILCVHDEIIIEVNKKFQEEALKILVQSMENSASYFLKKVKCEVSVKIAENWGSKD
smiles,measurement,setting,value
"CSC(C)C(=O)C=CN(C)C (centres unmarked) [Molecule 71, CSC(C(=O)C=CN(C)C)C]",DNA Pol,[1],74
same,% inhibition Apo pol 10',DRC-1; 10'; concentration 2.5,3.1346%
same,% inhibition Apo pol 10',DRC-1; 10'; concentration 5,9.272%
same,% inhibition Apo pol 10',DRC-1; 10'; concentration 10,23.0547%
same,% inhibition Apo pol 10',DRC-1; 10'; concentration 20,40.6618%
same,% inhibition Apo pol 10',DRC-1; 10'; concentration 40,61.0031%
same,% inhibition Apo pol 10',DRC-1; 10'; concentration 80,73.8561%
same,% inhibition Apol 90',DRC-1; 90'; concentration 2.5,-5.565%
same,% inhibition Apol 90',DRC-1; 90'; concentration 5,-2.761%
same,% inhibition Apol 90',DRC-1; 90'; concentration 10,6.496%
same,% inhibition Apol 90',DRC-1; 90'; concentration 20,18.7859%
same,% inhibition Apol 90',DRC-1; 90'; concentration 40,40.8686%
same,% inhibition Apol 90',DRC-1; 90'; concentration 80,61.3008%
same,% inhibition apPOL 180',DRC-1; 180'; concentration 2.5,-9.552%
same,% inhibition apPOL 180',DRC-1; 180'; concentration 5,-9.951%
same,% inhibition apPOL 180',DRC-1; 180'; concentration 10,-3.723%
same,% inhibition apPOL 180',DRC-1; 180'; concentration 20,5.025%
same,% inhibition apPOL 180',DRC-1; 180'; concentration 40,23.5627%
same,% inhibition apPOL 180',DRC-1; 180'; concentration 80,48.8803%
same,% inhibition Apo pol 5',"DRC-2, 5', concentration 2.5",11%
same,% inhibition Apo pol 5',"DRC-2, 5', concentration 5",14%
same,% inhibition Apo pol 5',"DRC-2, 5', concentration 10",26%
same,% inhibition Apo pol 5',"DRC-2, 5', concentration 20",41%
same,% inhibition Apo pol 5',"DRC-2, 5', concentration 40",46%
same,% inhibition Apo pol 5',"DRC-2, 5', concentration 80",48%
same,% inhibition Apol 40',"DRC-2, 40', concentration 2.5",11%
same,% inhibition Apol 40',"DRC-2, 40', concentration 5",11%
same,% inhibition Apol 40',"DRC-2, 40', concentration 10",21%
same,% inhibition Apol 40',"DRC-2, 40', concentration 20",42%
same,% inhibition Apol 40',"DRC-2, 40', concentration 40",50%
same,% inhibition Apol 40',"DRC-2, 40', concentration 80",62%
same,% inhibition ApPOL 90',"DRC-2, 90', concentration 2.5",9%
same,% inhibition ApPOL 90',"DRC-2, 90', concentration 5",6%
same,% inhibition ApPOL 90',"DRC-2, 90', concentration 10",15%
same,% inhibition ApPOL 90',"DRC-2, 90', concentration 20",39%
same,% inhibition ApPOL 90',"DRC-2, 90', concentration 40",47%
same,% inhibition ApPOL 90',"DRC-2, 90', concentration 80",64%
same,% inhibition apPOL 180',"DRC-2, 180', concentration 2.5",4%
same,% inhibition apPOL 180',"DRC-2, 180', concentration 5",0.715%
same,% inhibition apPOL 180',"DRC-2, 180', concentration 10",5.41%
same,% inhibition apPOL 180',"DRC-2, 180', concentration 20",31%
same,% inhibition apPOL 180',"DRC-2, 180', concentration 40",37%
same,% inhibition apPOL 180',"DRC-2, 180', concentration 80",65%
same,% inhibition Apo pol 5',conc 2.5 (unit not given); 5'; DRC-2,11%
same,% inhibition Apol 40',conc 2.5 (unit not given); 40'; DRC-2,11%
same,% inhibition Apol 40',conc 5 (unit not given); 40'; DRC-2,11%
same,DNA Pol,[2],74
O=C(O)c1cccc(N2N=C(C(F)(F)F)/C(=C/c3ccc(-c4ccccc4[N+](=O)[O-])o3)C2=O)c1 [Molecule 100],IC50,[3],9.62 µM
Cc1ccc(NC(=O)C2CCN(C(=O)c3cc4ccsc4[nH]3)CC2)c(Br)c1 [Molecule 14],IC50,[3],6.6 µM
COc1ccc2c(c1)CCc1c-2nc2ccc(Br)cc2c1C(=O)O [KU0059417],DNA Pol,[1],29
same,% inhibition Apo pol 10',DRC-1; 10'; concentration 2.5,25.2919%
same,% inhibition Apo pol 10',DRC-1; 10'; concentration 5,33.9692%
same,% inhibition Apo pol 10',DRC-1; 10'; concentration 10,45.4557%
same,% inhibition Apo pol 10',DRC-1; 10'; concentration 20,55.4931%
same,% inhibition Apo pol 10',DRC-1; 10'; concentration 40,69.0477%
same,% inhibition Apo pol 10',DRC-1; 10'; concentration 80,75.6745%
same,% inhibition Apol 90',DRC-1; 90'; concentration 2.5,11.1508%
same,% inhibition Apol 90',DRC-1; 90'; concentration 5,18.7068%
same,% inhibition Apol 90',DRC-1; 90'; concentration 10,30.3823%
same,% inhibition Apol 90',DRC-1; 90'; concentration 20,41.2946%
same,% inhibition Apol 90',DRC-1; 90'; concentration 40,54.5207%
same,% inhibition Apol 90',DRC-1; 90'; concentration 80,62.4129%
same,% inhibition apPOL 180',DRC-1; 180'; concentration 2.5,3.289%
same,% inhibition apPOL 180',DRC-1; 180'; concentration 5,10.0066%
same,% inhibition apPOL 180',DRC-1; 180'; concentration 10,20.2825%
same,% inhibition apPOL 180',DRC-1; 180'; concentration 20,30.8503%
same,% inhibition apPOL 180',DRC-1; 180'; concentration 40,43.5885%
same,% inhibition apPOL 180',DRC-1; 180'; concentration 80,50.0867%
same,% inhibition Apo pol 5',"DRC-2, 5', concentration 2.5",21%
same,% inhibition Apo pol 5',"DRC-2, 5', concentration 5",27%
same,% inhibition Apo pol 5',"DRC-2, 5', concentration 10",34%
same,% inhibition Apo pol 5',"DRC-2, 5', concentration 20",40%
same,% inhibition Apo pol 5',"DRC-2, 5', concentration 40",53%
same,% inhibition Apo pol 5',"DRC-2, 5', concentration 80",60%
same,% inhibition Apol 40',"DRC-2, 40', concentration 2.5",17%
same,% inhibition Apol 40',"DRC-2, 40', concentration 5",24%
same,% inhibition Apol 40',"DRC-2, 40', concentration 10",33%
same,% inhibition Apol 40',"DRC-2, 40', concentration 20",39%
same,% inhibition Apol 40',"DRC-2, 40', concentration 40",54%
same,% inhibition Apol 40',"DRC-2, 40', concentration 80",68%
same,% inhibition ApPOL 90',"DRC-2, 90', concentration 2.5",15%
same,% inhibition ApPOL 90',"DRC-2, 90', concentration 5",22%
same,% inhibition ApPOL 90',"DRC-2, 90', concentration 10",31%
same,% inhibition ApPOL 90',"DRC-2, 90', concentration 20",37%
same,% inhibition ApPOL 90',"DRC-2, 90', concentration 40",52%
same,% inhibition ApPOL 90',"DRC-2, 90', concentration 80",69%
same,% inhibition apPOL 180',"DRC-2, 180', concentration 2.5",7%
same,% inhibition apPOL 180',"DRC-2, 180', concentration 5",13%
same,% inhibition apPOL 180',"DRC-2, 180', concentration 10",20%
same,% inhibition apPOL 180',"DRC-2, 180', concentration 20",25%
same,% inhibition apPOL 180',"DRC-2, 180', concentration 40",42%
same,% inhibition apPOL 180',"DRC-2, 180', concentration 80",64%
same,DNA Pol,[2],29
O=c1cc(-c2ccccc2Cl)oc2c(NS(=O)(=O)c3cc(Cl)cc(Cl)c3O)ccc(O)c12 [KU0104277],% inhibition Apo pol 10',DRC-1; 10'; concentration 2.5,-4.204%
same,% inhibition Apo pol 10',DRC-1; 10'; concentration 5,6.708%
same,% inhibition Apo pol 10',DRC-1; 10'; concentration 10,7.439%
same,% inhibition Apo pol 10',DRC-1; 10'; concentration 20,27.5333%
same,% inhibition Apo pol 10',DRC-1; 10'; concentration 40,73.9275%
same,% inhibition Apo pol 10',DRC-1; 10'; concentration 80,90.8547%
same,% inhibition Apol 90',DRC-1; 90'; concentration 2.5,-8.287%
same,% inhibition Apol 90',DRC-1; 90'; concentration 5,2.039%
same,% inhibition Apol 90',DRC-1; 90'; concentration 10,0.6918%
same,% inhibition Apol 90',DRC-1; 90'; concentration 20,20.1462%
same,% inhibition Apol 90',DRC-1; 90'; concentration 40,69.1951%
same,% inhibition Apol 90',DRC-1; 90'; concentration 80,87.9641%
same,% inhibition apPOL 180',DRC-1; 180'; concentration 2.5,-13.4888%
same,% inhibition apPOL 180',DRC-1; 180'; concentration 5,-5.423%
same,% inhibition apPOL 180',DRC-1; 180'; concentration 10,-7.477%
same,% inhibition apPOL 180',DRC-1; 180'; concentration 20,7.115%
same,% inhibition apPOL 180',DRC-1; 180'; concentration 40,55.1056%
same,% inhibition apPOL 180',DRC-1; 180'; concentration 80,83.6554%
same,% inhibition Apo pol 5',DRC-2; 5'; concentration 2.5,-4%
same,% inhibition Apo pol 5',DRC-2; 5'; concentration 5,-2.32%
same,% inhibition Apo pol 5',DRC-2; 5'; concentration 10,35%
same,% inhibition Apo pol 5',DRC-2; 5'; concentration 20,11%
same,% inhibition Apo pol 5',DRC-2; 5'; concentration 40,63%
same,% inhibition Apo pol 5',DRC-2; 5'; concentration 80,65%
same,% inhibition Apol 40',DRC-2; 40'; concentration 2.5,-1.34%
same,% inhibition Apol 40',DRC-2; 40'; concentration 5,-1%
same,% inhibition Apol 40',DRC-2; 40'; concentration 10,42%
same,% inhibition Apol 40',DRC-2; 40'; concentration 20,11%
same,% inhibition Apol 40',DRC-2; 40'; concentration 40,74%
same,% inhibition Apol 40',DRC-2; 40'; concentration 80,75%
same,% inhibition ApPOL 90',DRC-2; 90'; concentration 2.5,-1%
same,% inhibition ApPOL 90',DRC-2; 90'; concentration 5,0.948%
same,% inhibition ApPOL 90',DRC-2; 90'; concentration 10,41%
same,% inhibition ApPOL 90',DRC-2; 90'; concentration 20,9%
same,% inhibition ApPOL 90',DRC-2; 90'; concentration 40,75%
same,% inhibition ApPOL 90',DRC-2; 90'; concentration 80,76%
same,% inhibition apPOL 180',DRC-2; 180'; concentration 2.5,-2.11%
same,% inhibition apPOL 180',DRC-2; 180'; concentration 5,-2.49%
same,% inhibition apPOL 180',DRC-2; 180'; concentration 10,33%
same,% inhibition apPOL 180',DRC-2; 180'; concentration 20,3.69%
same,% inhibition apPOL 180',DRC-2; 180'; concentration 40,72%
same,% inhibition apPOL 180',DRC-2; 180'; concentration 80,73%
same,% inhibition ApPOL 90',conc. 2.5; 90'; DRC-2,-1%
same,% inhibition Apol 40',conc. 5; 40'; DRC-2,-1%
same,% inhibition Apo pol 5',conc. 20; 5'; DRC-2,11%
same,% inhibition Apol 40',conc. 20; 40'; DRC-2,11%
same,% inhibition ApPOL 90',conc. 40; 90'; DRC-2,75%
same,% inhibition Apol 40',conc. 80; 40'; DRC-2,75%
same,DNA Pol,"primary screen value by plate and well; 90 min, 10 µM",36
same,DNA Pol,"primary screen value of the 186 hits; unit not given; 90 min, 10 µM",36

# From paper PMC9090415, “Discovery of small molecule inhibitors of Plasmodium falciparum apicoplast DNA polymerase” (Journal of Enzyme Inhibition and Medicinal Chemistry, 2022)
